Earlier results as cited in US7682636B2 (Metaproteomics, LLC, priority 2001, dated 2010).

Tests used:
[1] = system: COX-2 over COX-1; conditions: reported, background
[2] = system: osteoarthritis of the knee in outpatients; conditions: 1500 mg glucosamine sulfate per day versus 1200 mg ibuprofen

SMILES	COX-2 specificity [1]	pain scores [2]
CC(=O)Oc1ccccc1C(=O)O [aspirin]	0.6	
N[C@H]1C(O)O[C@H](CO)[C@@H](O)[C@@H]1O.O=S(=O)(O)O (stereo partly drawn) [glucosamine, glucosamine sulfate]		difference between the two groups turned significantly in favor of glucosamine by week eight
CC(C)Cc1ccc(C(C)C(=O)O)cc1 (stereo not drawn) [ibuprofen]		pain scores decreased faster during the first two weeks in the ibuprofen patients than in the glucosamine-treated patients
